Read-outs that look alike come from different tables or passages of the source.
Biological target: P2X7 (Homo sapiens (Human), UniProt Q99572)
Experiment: P2X7 antagonism in human peripheral blood mononuclear cells (PBMCs), IL-1β release
Type: cell-based
Settings: LPS 30 ng/ml + Bz-ATP 0.5 mM; for remaining activity at 10 µM: read-out: PBMC 10 μM (% control); for PBMC 10 μM (% control): Table 1, 10 μM compound
Experimental: P2X7 Antagonism in Human Peripheral Blood Mononuclear Cells (PBMCs) and Human Whole Blood.
Human blood was collected using a blood donor program. PBMCs were isolated from blood using a Ficoll density gradient technique. Briefly, blood was laid on Ficoll solution and centrifuged at RT for 20 minutes at 2000 rpm. The buffy layer (between red blood cells and plasma) was carefully collected by aspiration, washed with PBS and centrifuged again at 1500 rpm for 15 minutes. The resulting cell pellet was washed and plated on 96 well-plates for experiments. For the Human Whole Blood experiments, 150 μl of human blood was platted on 96 well-plates. Lipopolysaccharide (LPS) (30 ng/ml) was added to each well and incubated for 1 hour. Test compounds were then added and incubated for 30 minutes. The P2X7 agonist, 2′(3′)-O-(4-benzoylbenzoyl) adenosine 5′-triphosphate (Bz-ATP) was then added at a final concentration of 0.5 mM (PBMC) or 1 mM (blood). Cells were incubated for an additional 1.5 hours. At that point, supernatant was collected and stored for IL-1β assay using manufacturer's protocol for enzyme-linked immunosorbent assay (ELISA). Data was expressed as percent control, where control is defined as the difference in IL-1β release in LPS+Bz-ATP samples and LPS only samples. Data was plotted as response (% control) versus concentration to generate IC50 values. […] Data are analyzed and graphed on Graphpad Prism 5. For analysis, each concentration point is averaged from triplicate values and the averaged values are plotted on Graphpad Prism.

[1] = P2X7, Table 2 (additional runs), 10 μM compound

Sequence of P2X7 (Q99572 whole entry): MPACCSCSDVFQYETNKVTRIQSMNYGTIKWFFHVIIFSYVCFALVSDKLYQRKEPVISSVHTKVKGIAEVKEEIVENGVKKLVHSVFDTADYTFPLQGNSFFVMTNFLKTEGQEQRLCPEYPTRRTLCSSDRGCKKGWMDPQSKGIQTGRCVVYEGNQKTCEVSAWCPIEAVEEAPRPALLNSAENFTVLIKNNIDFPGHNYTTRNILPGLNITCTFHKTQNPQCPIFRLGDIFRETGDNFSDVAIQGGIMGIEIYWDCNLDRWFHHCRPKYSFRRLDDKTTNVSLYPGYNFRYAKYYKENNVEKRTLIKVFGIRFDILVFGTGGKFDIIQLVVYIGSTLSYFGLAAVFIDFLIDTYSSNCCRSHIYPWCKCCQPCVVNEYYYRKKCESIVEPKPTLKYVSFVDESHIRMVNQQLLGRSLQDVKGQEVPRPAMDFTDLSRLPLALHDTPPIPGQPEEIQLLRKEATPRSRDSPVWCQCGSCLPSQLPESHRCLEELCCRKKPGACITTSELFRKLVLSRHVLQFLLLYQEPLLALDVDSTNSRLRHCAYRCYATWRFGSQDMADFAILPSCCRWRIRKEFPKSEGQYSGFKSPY

## O=C(c1ccnc(C(F)(F)F)c1Cl)N1[C@@H]2CCC[C@H]1c1nnc(-c3cccs3)n1C2 (stereo in doubt) [Example 36, (6R*,10S*)-11-{[3-Chloro-2-(trifluoromethyl)pyridin-4-yl]carbonyl}-3-thiophen-2-yl-5,6,7,8,9,10-hexahydro-6,10-epimino[1,2,4]triazolo[4,3-a]azocine]
P2X7, Table 1, 10 μM compound
  remaining activity at 10 µM: -1.2%
[1]
  remaining activity at 10 µM: -1.2%

## O=C(c1cccc(C(F)(F)F)c1Cl)N1[C@@H]2CCC[C@H]1c1nnc(-c3cc(C(F)(F)F)ccn3)n1C2 (stereo in doubt) [Example 196, (6R,10S)-11-{[2-Chloro-3-(trifluoromethyl)phenyl]carbonyl}-3-[4-(trifluoromethyl)pyridin-2-yl]-5,6,7,8,9,10-hexahydro-6,10-epimino[1,2,4]triazolo[4,3-a]azocine]
[1]
  remaining activity at 10 µM: -0.2%

## O=C(c1cccc(C(F)(F)F)c1Cl)N1[C@@H]2CCC[C@H]1c1nnc(-c3ncc(F)cn3)n1C2 (stereo in doubt) [Example 18, (6R*,10S*)-11-{[2-Chloro-3-(trifluoromethyl)phenyl]carbonyl}-3-(5-fluoropyrimidin-2-yl)-5,6,7,8,9,10-hexahydro-6,10-epimino[1,2,4]triazolo[4,3-a]azocine]
P2X7, Table 1, 10 μM compound
  remaining activity at 10 µM: -9%
[1]
  remaining activity at 10 µM: -9%

## Cc1ccc(-c2nnc3n2C[C@H]2CCC[C@@H]3N2C(=O)c2ccnc(C(F)(F)F)c2Cl)s1 (stereo in doubt) [Example 39, (6R*,10S*)-11-{[3-Chloro-2-(trifluoromethyl)pyridin-4-yl]carbonyl}-3-(5-methylthiophen-2-yl)-5,6,7,8,9,10-hexahydro-6,10-epimino[1,2,4]triazolo[4,3-a]azocine]
P2X7, Table 1, 10 μM compound
  remaining activity at 10 µM: 5.8%
[1]
  remaining activity at 10 µM: 5.8%

## O=C(c1cccc(C(F)(F)F)c1Cl)N1[C@H]2CC[C@@H]1c1nnc(-c3ccccn3)n1C2 [Example 41, (6S,9R)-10-{[2-Chloro-3-(trifluoromethyl)phenyl]carbonyl}-3-pyridin-2-yl-6,7,8,9-tetrahydro-5H-6,9-epimino[1,2,4]triazolo[4,3-a]azepine]
[1]
  remaining activity at 10 µM: -20%
  PBMC 10 μM (% control): −20.0 % control

## O=C(c1ccnc(C(F)(F)F)c1Cl)N1[C@H]2CCC[C@@H]1c1nnc(-c3cccs3)n1C2 (stereo in doubt) [Example 35, (6S*,10R*)-11-{[3-Chloro-2-(trifluoromethyl)pyridin-4-yl]carbonyl}-3-thiophen-2-yl-5,6,7,8,9,10-hexahydro-6,10-epimino[1,2,4]triazolo[4,3-a]azocine]
[1]
  remaining activity at 10 µM: 82.2%
  PBMC 10 μM (% control): 82.2 % control

From patent US10053462B2, “P2X7 modulators” (Jansssen Pharmaceutica NV, priority 2013, dated 2018)
